# Assay results: paper PMC10584170, “Machine learning-based phenotypic imaging to characterise the targetable biology of Plasmodium falciparum male gametocytes for the development of transmission-blocking antimalarials” (PLOS Pathogens, 2023)
# Read-outs that look alike come from different tables or passages of the source.
# Columns and labels:
# [1] = test system: HepG2 cells; assay: HepG2 cytotoxicity counter-screen; conditions: cytotoxic activity against HepG2 cells
# [2] = test system: P. falciparum female gametocytes; assay: P. falciparum Dual Gamete Formation Assay (PfDGFA), female readout (Pfs25-positive female gametes); assay type: cell-based, Plasmodium falciparum NF54; conditions: for Selectivity ratio F: HepG2 Tox50 versus female IC50; for IC50: read-out: Female IC50; for HitlevelF: number of replicates with >50% inhibition in the female readout
# Summary of the method: (§1)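 Male and female gamete formation were quantified by microscopy image analysis following 24 h incubation of mature NF54 gametocytes with compound and activation at 28°C with xanthurenic acid.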
# [3] = test system: P. falciparum male gametocytes; assay: P. falciparum Dual Gamete Formation Assay (PfDGFA), male readout (exflagellation); assay type: cell-based, Plasmodium falciparum NF54; conditions: for Selectivity Ratio M: HepG2 Tox50 versus male IC50; for IC50: read-out: Male IC50; for HitlevelM: number of replicates with >50% inhibition in the male readout
# Summary of the method: as §1
# [4] = 2µM, 24h preincubation with gametocytes, average of replicates
# [5] = 2µM, 24h preincubation with gametocytes, replicate R1
# [6] = 2µM, 24h preincubation with gametocytes, replicate R3
# [7] = 2µM, 24h preincubation with gametocytes, replicate R4
# [8] = PfDGFA, 24 h incubation with gametocytes before induction, female gamete readout
# [9] = PfDGFA, 24 h incubation with gametocytes before induction, exflagellation readout
# [10] = PfDGFA at 2µM, 24h preincubation with gametocytes, average of replicates
# [11] = PfDGFA at 2µM, 24h preincubation with gametocytes, replicate R1
# [12] = PfDGFA at 2µM, 24h preincubation with gametocytes, replicate R3
# [13] = PfDGFA at 2µM, 24h preincubation with gametocytes, replicate R4
# [14] = Plasmodium falciparum, read-out: % inhibition female (individual replicates) R1
# [15] = Plasmodium falciparum, read-out: % inhibition female (individual replicates) R2
# [16] = Plasmodium falciparum, read-out: % inhibition female (individual replicates) R3
# [17] = Plasmodium falciparum, read-out: % inhibition female (individual replicates) R4
# [18] = Plasmodium falciparum, read-out: Average inhibition female (%)
# [19] = Plasmodium falciparum, read-out: % inhibition male (individual replicates) R1
# [20] = Plasmodium falciparum, read-out: % inhibition male (individual replicates) R2
# [21] = Plasmodium falciparum, read-out: % inhibition male (individual replicates) R4
# [22] = Plasmodium falciparum, read-out: Average inhibition male (%)
Structure (SMILES),"IC50 [2, 8] [nM]","IC50 [3, 9] [nM]",Tox50 [1] [µM],"Average inhibition female (%) [2, 4] [%]","% inhibition female (individual replicates) R1 [2, 5] [%]","% inhibition female (individual replicates) R3 [2, 6] [%]","% inhibition female (individual replicates) R4 [2, 7] [%]",Selectivity ratio F [2],"Average inhibition male (%) [3, 4] [%]","% inhibition male (individual replicates) R1 [3, 5] [%]","% inhibition male (individual replicates) R4 [3, 7] [%]",Selectivity Ratio M [3],"% inhibition male (individual replicates) R3 [3, 6] [%]",also measured
COc1cc(CNCCCCCCNCc2cc(OC)c3ccccc3c2OC)c(OC)c2ccccc12.CS(=O)(=O)O [TCMDC-137502],3030,1210,3.76,,,,,1.24,,,,3.09,,"Average inhibition female (%) [2, 10]: 71.8%; % inhibition female (individual replicates) R1 [2, 11]: 79.7%; % inhibition female (individual replicates) R3 [2, 12]: 78.6%; % inhibition female (individual replicates) R4 [2, 13]: 84.0%; HitlevelF ([2]; 2µM): 3; Average inhibition male (%) [3, 10]: 85.1%; % inhibition male (individual replicates) R1 [3, 11]: 95.4%; % inhibition male (individual replicates) R3 [3, 12]: 87.5%; % inhibition male (individual replicates) R4 [3, 13]: 90.2%; HitlevelM ([3]; 2µM): 4"
CC(CO)(CO)NCc1cc2c3ccccc3c(CNC(C)(CO)CO)cc2c2ccccc12.CS(=O)(=O)O [TCMDC-137752],,,13.04,,,,,2.72,,,,14.99,,"IC50 ([2]; Plasmodium falciparum, 24 h): 4790 nM; inhibition at 2 µM [2, 14]: 37.9%; inhibition at 2 µM [2, 15]: 48.4%; inhibition at 2 µM [2, 16]: 18.2%; inhibition at 2 µM [2, 17]: 48.2%; inhibition at 2 µM [2, 18]: 38.2%; IC50 ([3]; Plasmodium falciparum, 24 h): 870 nM; inhibition at 2 µM [3, 19]: 93.1%; inhibition at 2 µM [3, 20]: 93.5%; inhibition at 2 µM ([3]; Plasmodium falciparum, read-out: % inhibition male (individual replicates) R3): 85.5%; inhibition at 2 µM [3, 21]: 90.9%; inhibition at 2 µM [3, 22]: 90.8%"
CCOc1c(CCNCCCCNCCc2ccc3ccccc3c2OCC)ccc2ccccc12.CS(=O)(=O)O [TCMDC-137759],2330,1310,3.44,82.4,86.3,88.2,86.8,1.48,92.2,95.9,100.2,2.62,97.8,
CS(=O)(=O)O.CSc1ccc2ccccc2c1CCNCCCCNCCc1c(SC)ccc2ccccc12 [TCMDC-137763],2080,1400,3.73,55.5,47.6,28.5,71.9,1.79,90.7,94.6,98.9,2.67,73.0,
CCC1=C[C@@H]2CN(C1)Cc1c([nH]c3ccccc13)[C@@](C(=O)OC)(c1cc3c(cc1OC)N(C)[C@H]1[C@@](O)(C(=O)OC)[C@H](O)[C@]4(CC)C=CCN5CC[C@]31[C@@H]54)C2.O=S(=O)(O)O [TCMDC-137769],,,55.68,,,,,5.57,,,,5697.96,,"IC50 ([2]; Plasmodium falciparum, 24 h): > 10000 nM; inhibition at 2 µM [2, 14]: 4.8%; inhibition at 2 µM [2, 15]: -7.3%; inhibition at 2 µM [2, 16]: 2.7%; inhibition at 2 µM [2, 17]: 9.5%; inhibition at 2 µM [2, 18]: 2.4%; IC50 ([3]; Plasmodium falciparum, 24 h): 10 nM; inhibition at 2 µM [3, 19]: 101%; inhibition at 2 µM [3, 20]: 99.3%; inhibition at 2 µM [3, 21]: 103%; inhibition at 2 µM [3, 22]: 101%"
CC(=NNC(=S)NC(C)(C)C)c1ccccn1 [TCMDC-137783],970,110,0.1,58.4,41.7,38.4,72.1,0.11,101.1,99.9,104.2,0.9,98.6,
COc1ccc2ccc(OC)c(CNCCCCCCNCc3c(OC)ccc4ccc(OC)cc34)c2c1.CS(=O)(=O)O [TCMDC-137796],3650,1430,4.07,38.4,29.7,9.8,40.9,1.12,93.5,89.3,102.2,2.84,82.0,
Br.c1cc(C2=NC3CCCCC3N2)ccc1OCCCOc1ccc(C2=NC3CCCCC3N2)cc1 (stereo not shown) [TCMDC-137803],,,36.78,,,,,3.68,,,,32.57,,"inhibition at 2 µM ([2]; Plasmodium falciparum, 2µM, 24h preincubation with gametocytes, average of replicates, read-out: Average inhibition female (%)): 39.4%; inhibition at 2 µM ([2]; Plasmodium falciparum, 2µM, 24h preincubation with gametocytes, replicate R1, read-out: % inhibition female (individual replicates) R1): 33.6%; inhibition at 2 µM ([2]; Plasmodium falciparum, 2µM, 24h preincubation with gametocytes, replicate R2, read-out: % inhibition female (individual replicates) R2): 49.2%; inhibition at 2 µM ([2]; Plasmodium falciparum, 2µM, 24h preincubation with gametocytes, replicate R3, read-out: % inhibition female (individual replicates) R3): 5.9%; inhibition at 2 µM ([2]; Plasmodium falciparum, 2µM, 24h preincubation with gametocytes, replicate R4, read-out: % inhibition female (individual replicates) R4): 68.9%; IC50 ([2]; Plasmodium falciparum, PfDGFA, 24 h incubation with gametocytes before induction, female gamete readout): > 10000 nM; inhibition at 2 µM ([3]; Plasmodium falciparum, 2µM, 24h preincubation with gametocytes, average of replicates, read-out: Average inhibition male (%)): 96.1%; inhibition at 2 µM ([3]; Plasmodium falciparum, 2µM, 24h preincubation with gametocytes, replicate R1, read-out: % inhibition male (individual replicates) R1): 93.1%; inhibition at 2 µM ([3]; Plasmodium falciparum, 2µM, 24h preincubation with gametocytes, replicate R2, read-out: % inhibition male (individual replicates) R2): 96.3%; inhibition at 2 µM ([3]; Plasmodium falciparum, 2µM, 24h preincubation with gametocytes, replicate R3, read-out: % inhibition male (individual replicates) R3): 92.1%; inhibition at 2 µM ([3]; Plasmodium falciparum, 2µM, 24h preincubation with gametocytes, replicate R4, read-out: % inhibition male (individual replicates) R4): 103%; IC50 ([3]; Plasmodium falciparum, PfDGFA, 24 h incubation with gametocytes before induction, exflagellation readout): 1130 nM"

# Continued, in another order:
"IC50 [2, 8] [nM]","IC50 [3, 9] [nM]",Structure (SMILES),Tox50 [1] [µM],"Average inhibition female (%) [2, 4] [%]","% inhibition female (individual replicates) R1 [2, 5] [%]","% inhibition female (individual replicates) R3 [2, 6] [%]","% inhibition female (individual replicates) R4 [2, 7] [%]",Selectivity ratio F [2],"Average inhibition male (%) [3, 4] [%]","% inhibition male (individual replicates) R1 [3, 5] [%]","% inhibition male (individual replicates) R4 [3, 7] [%]",Selectivity Ratio M [3],"% inhibition male (individual replicates) R3 [3, 6] [%]",also measured
1860,1320,Cl.N=C(NCCCCC1CCCCC1)c1cccc(C(=N)NCCCCC2CCCCC2)n1 [TCMDC-137452],2.66,47.7,57.8,31.9,45.9,1.43,99.3,93.4,104.5,2.02,,
1440,1120,Clc1ccc(/N=C(/NCCCCCCCN/C(=N\c2ccc(Cl)cc2)Nc2ccc(Cl)cc2)Nc2ccc(Cl)cc2)cc1 [TCMDC-137529],2.3,51.0,61.8,39.3,54.5,1.6,95.0,95.9,94.9,2.06,,
1710,1070,CCCCCCC(N)c1ccc(OCCCOc2ccc(C(N)CCCCCC)cc2)cc1.Cl (stereo not shown) [TCMDC-137621],3.56,47.1,37.5,53.9,41.4,2.08,94.3,98.4,99.6,3.34,82.0,
840,760,Nc1nc(N)c2c(ccc3c2ccn3Cc2ccc3c(c2)OCO3)n1 [TCMDC-137808],0.15,,,,,0.18,,,,0.19,,"Average inhibition female (%) [2, 10]: 83.7%; % inhibition female (individual replicates) R1 [2, 11]: 77.5%; % inhibition female (individual replicates) R3 [2, 12]: 80.4%; % inhibition female (individual replicates) R4 [2, 13]: 88.7%; HitlevelF ([2]; 2µM): 4; Average inhibition male (%) [3, 10]: 70.0%; % inhibition male (individual replicates) R1 [3, 11]: 66.3%; % inhibition male (individual replicates) R3 [3, 12]: 77.8%; % inhibition male (individual replicates) R4 [3, 13]: 76.3%; HitlevelM ([3]; 2µM): 4"
